# Like-named read-outs stand apart in the source and are kept apart here.
# Target: T1, CD80-CD28 interaction (Homo sapiens, UniProt P33681)
# T1 sequence (P33681 35-242 limits assumed): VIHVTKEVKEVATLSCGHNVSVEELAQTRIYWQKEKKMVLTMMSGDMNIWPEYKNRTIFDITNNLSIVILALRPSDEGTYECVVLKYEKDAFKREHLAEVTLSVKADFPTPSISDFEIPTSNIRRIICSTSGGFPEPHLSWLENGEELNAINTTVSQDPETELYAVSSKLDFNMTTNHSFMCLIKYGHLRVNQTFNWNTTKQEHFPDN
# Test: Homogenous Time Resolved Fluorescence (HTRF) assay, cell free
# Format: binding
# Conditions: 4 hours at room temperature
# Experimental: Homogenous Time Resolved Fluorescence Assay
# The examples described above were tested in a cell free Homogenous Time Resolved Fluorescence (HTRF) assay to determine their activity as inhibitors of the CD80-CD28 interaction.
# In the assay, europium and allophycocyanin (APC) are associated with CD28 and CD80 indirectly (through antibody linkers) to form a complex, which brings the europium and APC into close proximity to generate a signal. The complex comprises the following six proteins: fluorescent label 1, linker antibody 1, CD28 fusion protein, CD80 fusion protein, linker antibody 2, and fluorescent label 2. The table below describes these reagents in greater detail.
# On formation of the complex, europium and APC are brought into proximity and a signal is generated.
# Non-specific interaction was measured by substituting a mouse Fab fragment (C215) for the CD80 mouse Fab fragment fusion protein (1.9 μg/ml). The assay was carried out in black 384 well plates in a final volume of 30 μl. Assay buffer: 50 mM Tris-HCl, 150 mM NaCl pH7.8, containing 0.1% BSA (w/v) added just prior to use.
# Compounds were added to the above reagents in a concentration series ranging between 100 μM-1.7 nM. The reaction was incubated for 4 hours at room temperature. Dual measurements were made using a Wallac Victor 1420 Multilabel Counter. First measurement: excitation 340 nm, emission 665 nm, delay 50 μs, window time 200 μs. second measurement: excitation 340 nm, emission 615 nm, delay 50 μs, window time 200 μs. Counts were automatically corrected for fluorescence crossover, quenching and background. The EC50 activities of compounds tested are recorded as: EC50:*=>10 μM,**=1-10 μM,***=<1 μM.
# [1] = inhibition of the CD80-CD28 interaction, read-out: EC50 activity in the HTRF assay
# [2] = cell-free HTRF, compound concentration series 100 μM-1.7 nM, read-out: Activity (EC50 in the HTRF assay)
Compound,EC50 [1] [nM],EC50 [2] [nM]
"O=C(O)c1ccc(-n2[nH]c3c(nnc4ccccc43)c2=O)cc1 [Example 1, 4-(3-oxo-1,3-dihydro-2H-pyrazolo[4,3-c]cinnolin-2-yl)benzoic acid]",> 10000,–
"O=C(O)c1ccc(-n2[nH]c3c(nnc4c(F)cccc43)c2=O)cc1 [Example 5, 4-(6-fluoro-3-oxo-1,3-dihydro-2H-pyrazolo[4,3-c]cinnolin-2-yl)benzoic acid]",> 10000,–
"CN(C)CCCNC(=O)Nc1ccc(-n2[nH]c3c(nnc4ccccc43)c2=O)cc1 [Example 8, N-[3-(dimethylamino)propyl]-N′-[4-(3-oxo-1,3-dihydro-2H-pyrazolo[4,3-c]cinnolin-2-yl)phenyl]urea]",< 1000,–
"CCOC(=O)c1ccc(-n2[nH]c3c(nnc4ccccc43)c2=O)cc1 [Example 9, 4-(3-oxo-1,3-dihydro-2H-pyrazolo[4,3-c]cinnolin-2-yl)benzoic acid ethyl ester]",1000 to 10000,–
COCCNC(=O)c1ccc(-n2[nH]c3c(nnc4ccccc43)c2=O)cc1 [Example 9a],–,1000 to 10000
CN1CCN(CCCNC(=O)c2ccc(-n3[nH]c4c(nnc5ccccc54)c3=O)cc2)CC1 [Example 10],–,< 1000
CN(C)CCNC(=O)c1ccc(-n2[nH]c3c(nnc4ccccc43)c2=O)cc1 [Example 11],–,< 1000
O=C(NCCN1CCOCC1)c1ccc(-n2[nH]c3c(nnc4ccccc43)c2=O)cc1 [Example 12],–,< 1000
O=C(NCCCN1CCOCC1)c1ccc(-n2[nH]c3c(nnc4ccccc43)c2=O)cc1 [Example 13],–,< 1000
CC(C)=CCC/C(C)=C/CNC(=O)c1ccc(-n2[nH]c3c(nnc4ccccc43)c2=O)cc1 [Example 14],–,> 10000
O=C(Nc1ccccc1)c1ccc(-n2[nH]c3c(nnc4ccccc43)c2=O)cc1 [Example 15],–,1000 to 10000
Cc1ccc2[nH]cc(CCNC(=O)c3ccc(-n4[nH]c5c(nnc6ccccc65)c4=O)cc3)c2c1 [Example 16],–,> 10000
CC(C)(C)OC(=O)NCCNC(=O)c1ccc(-n2[nH]c3c(nnc4ccccc43)c2=O)cc1 [Example 17],–,1000 to 10000
CN1CCC(NC(=O)c2ccc(-n3[nH]c4c(nnc5ccccc54)c3=O)cc2)CC1 [Example 18],–,< 1000
CC(NC(=O)c1ccc(-n2[nH]c3c(nnc4ccccc43)c2=O)cc1)c1ccccc1 (centres unmarked) [Example 19],–,> 10000
O=C(NCCc1ccncc1)c1ccc(-n2[nH]c3c(nnc4ccccc43)c2=O)cc1 [Example 20],–,< 1000
O=C(NCc1ccc([N+](=O)[O-])cc1)c1ccc(-n2[nH]c3c(nnc4ccccc43)c2=O)cc1 [Example 21],–,1000 to 10000
O=C(NCCCn1ccnc1)c1ccc(-n2[nH]c3c(nnc4ccccc43)c2=O)cc1 [Example 23],–,< 1000
O=C(NC1CCCCCC1)c1ccc(-n2[nH]c3c(nnc4ccccc43)c2=O)cc1 [Example 24],–,1000 to 10000
CCCCC(CC)CNC(=O)c1ccc(-n2[nH]c3c(nnc4ccccc43)c2=O)cc1 (centres unmarked) [Example 25],–,> 10000
CC(C)CCCC(C)NC(=O)c1ccc(-n2[nH]c3c(nnc4ccccc43)c2=O)cc1 (centres unmarked) [Example 26],–,< 1000
CCCCCCC(C)NC(=O)c1ccc(-n2[nH]c3c(nnc4ccccc43)c2=O)cc1 (centres unmarked) [Example 27],–,> 10000

Compound,EC50 [1] [nM],EC50 [2] [nM]
C=C(C)C(=O)OCCNC(=O)c1ccc(-n2[nH]c3c(nnc4ccccc43)c2=O)cc1 [Example 28],–,1000 to 10000
CC(O)CCNC(=O)c1ccc(-n2[nH]c3c(nnc4ccccc43)c2=O)cc1 (centres unmarked) [Example 29],–,< 1000
COc1ccc2[nH]cc(CCNC(=O)c3ccc(-n4[nH]c5c(nnc6ccccc65)c4=O)cc3)c2c1 [Example 31],–,1000 to 10000
CC1CCCCN1CCCNC(=O)c1ccc(-n2[nH]c3c(nnc4ccccc43)c2=O)cc1 (centres unmarked) [Example 32],–,< 1000
CC(C)C(C)NC(=O)c1ccc(-n2[nH]c3c(nnc4ccccc43)c2=O)cc1 (centres unmarked) [Example 33],–,1000 to 10000
CCOC(=O)CC(C)NC(=O)c1ccc(-n2[nH]c3c(nnc4ccccc43)c2=O)cc1 (centres unmarked) [Example 34],–,1000 to 10000
O=C(NCCc1cnc[nH]1)c1ccc(-n2[nH]c3c(nnc4ccccc43)c2=O)cc1 [Example 35],–,1000 to 10000
O=C(NCCN1CCNC1=O)c1ccc(-n2[nH]c3c(nnc4ccccc43)c2=O)cc1 [Example 36],–,> 10000
O=C(NCCN1CCN(Cc2ccccc2)CC1)c1ccc(-n2[nH]c3c(nnc4ccccc43)c2=O)cc1 [Example 37],–,< 1000
CC(C)(C)C1CCC(NC(=O)c2ccc(-n3[nH]c4c(nnc5ccccc54)c3=O)cc2)CC1 (centres unmarked) [Example 38],–,> 10000
O=C(NCc1cccc([N+](=O)[O-])c1)c1ccc(-n2[nH]c3c(nnc4ccccc43)c2=O)cc1 [Example 39],–,1000 to 10000
O=C(Nc1ccc(N2CCOCC2)cc1)c1ccc(-n2[nH]c3c(nnc4ccccc43)c2=O)cc1 [Example 40],–,1000 to 10000
O=C(NCCCc1ccccc1)c1ccc(-n2[nH]c3c(nnc4ccccc43)c2=O)cc1 [Example 41],–,1000 to 10000
O=C(NCCCNC(=O)c1ccc(-n2[nH]c3c(nnc4ccccc43)c2=O)cc1)OCc1ccccc1 [Example 42],–,1000 to 10000
CCCCCC(C)NC(=O)c1ccc(-n2[nH]c3c(nnc4ccccc43)c2=O)cc1 (centres unmarked) [Example 43],–,1000 to 10000
O=C(NC1CCCC1OCc1ccccc1)c1ccc(-n2[nH]c3c(nnc4ccccc43)c2=O)cc1 (centres unmarked) [Example 44],–,> 10000
CCOC(CNC(=O)c1ccc(-n2[nH]c3c(nnc4ccccc43)c2=O)cc1)OCC [Example 45],–,1000 to 10000
CCNC(=O)c1ccc(-n2[nH]c3c(nnc4ccccc43)c2=O)cc1 [Example 46],–,< 1000
O=C(NCCNc1ccccc1)c1ccc(-n2[nH]c3c(nnc4ccccc43)c2=O)cc1 [Example 47],–,< 1000
CNCCNC(=O)c1ccc(-n2[nH]c3c(nnc4ccccc43)c2=O)cc1 [Example 48],–,< 1000
CCNCCNC(=O)c1ccc(-n2[nH]c3c(nnc4ccccc43)c2=O)cc1 [Example 49],–,< 1000
O=C(NCCOCCO)c1ccc(-n2[nH]c3c(nnc4ccccc43)c2=O)cc1 [Example 50],–,1000 to 10000

Compound,EC50 [1] [nM],EC50 [2] [nM]
O=C(NCCO)c1ccc(-n2[nH]c3c(nnc4ccccc43)c2=O)cc1 [Example 51],–,< 1000
CNCCCNC(=O)c1ccc(-n2[nH]c3c(nnc4ccccc43)c2=O)cc1 [Example 52],–,< 1000
NCCCCNC(=O)c1ccc(-n2[nH]c3c(nnc4ccccc43)c2=O)cc1 [Example 54],–,< 1000
CC(C)CC(C)NC(=O)c1ccc(-n2[nH]c3c(nnc4ccccc43)c2=O)cc1 (centres unmarked) [Example 55],–,< 1000
O=C(NCc1ccc(F)cc1)c1ccc(-n2[nH]c3c(nnc4ccccc43)c2=O)cc1 [Example 56],–,1000 to 10000
O=C(NC1CCCCC1)c1ccc(-n2[nH]c3c(nnc4ccccc43)c2=O)cc1 [Example 57],–,1000 to 10000
CCCCN(CCCC)CCCNC(=O)c1ccc(-n2[nH]c3c(nnc4ccccc43)c2=O)cc1 [Example 58],–,< 1000
O=C(NC1CCCCCCCCCCC1)c1ccc(-n2[nH]c3c(nnc4ccccc43)c2=O)cc1 [Example 59],–,> 10000
CCN(CC)CCNC(=O)c1ccc(-n2[nH]c3c(nnc4ccccc43)c2=O)cc1 [Example 60],–,< 1000
CN1CCCC1CCNC(=O)c1ccc(-n2[nH]c3c(nnc4ccccc43)c2=O)cc1 (centres unmarked) [Example 61],–,< 1000
CC1CCC(NC(=O)c2ccc(-n3[nH]c4c(nnc5ccccc54)c3=O)cc2)CC1 (centres unmarked) [Example 62],–,1000 to 10000
O=C(NCCOc1ccccc1)c1ccc(-n2[nH]c3c(nnc4ccccc43)c2=O)cc1 [Example 63],–,1000 to 10000
O=C(NCc1ccc(OC(F)(F)F)cc1)c1ccc(-n2[nH]c3c(nnc4ccccc43)c2=O)cc1 [Example 64],–,1000 to 10000
O=C(NCCNc1cccc2ccccc12)c1ccc(-n2[nH]c3c(nnc4ccccc43)c2=O)cc1 [Example 65],–,1000 to 10000
CCOC(=O)C(C)NC(=O)c1ccc(-n2[nH]c3c(nnc4ccccc43)c2=O)cc1 (centres unmarked) [Example 66],–,1000 to 10000
CCCCOCCCNC(=O)c1ccc(-n2[nH]c3c(nnc4ccccc43)c2=O)cc1 [Example 67],–,< 1000
CCN1CCCC1CNC(=O)c1ccc(-n2[nH]c3c(nnc4ccccc43)c2=O)cc1 (centres unmarked) [Example 69],–,< 1000
CC[C@@H](C)NC(=O)c1ccc(-n2[nH]c3c(nnc4ccccc43)c2=O)cc1 [Example 70],–,< 1000
CC[C@H](C)NC(=O)c1ccc(-n2[nH]c3c(nnc4ccccc43)c2=O)cc1 [Example 71],–,< 1000
CCC(CC)NC(=O)c1ccc(-n2[nH]c3c(nnc4ccccc43)c2=O)cc1 [Example 72],–,1000 to 10000
O=C(NCCCCc1ccccc1)c1ccc(-n2[nH]c3c(nnc4ccccc43)c2=O)cc1 [Example 73],–,1000 to 10000
